Assay results reported in patent US20200270309A1, “MALEIMIDE GROUP-MODIFIED ANGIOGENESIS INHIBITOR HM-1 AND USE THEREOF” (NANJING ANJI BIOLOGICAL TECHNOLOGY CO., LTD, priority 2017, published 2020).
Marks after values point to notes of the source that are not given here. Peptide text beside a SMILES is read from it. * marks the point of attachment. X65 = O=C1C=CC(=O)N1c1cccc(CCCCCCCCCCCCC(=O)*)c1; X58 = O=C1C=CC(=O)N1c1cccc(CCCCCCCCCCCC(=O)*)c1; X74 = O=C1C=CC(=O)N1c1cccc(CCCCCCCCCCC(=O)*)c1; X84 = O=C1C=CC(=O)N1c1ccccc1CCCCCCCCCCCCC(=O)*; X64 = O=C1C=CC(=O)N1c1cccc(CCCCCCCCCC(=O)*)c1; X68 = O=C1C=CC(=O)N1c1ccccc1CCCCCCCCCCCC(=O)*; X59 = O=C1C=CC(=O)N1c1cccc(CCCCCCCCC(=O)*)c1; X72 = O=C1C=CC(=O)N1c1ccccc1CCCCCCCCCCC(=O)*; X60 = O=C1C=CC(=O)N1c1ccccc1CCCCCCCCCC(=O)*; X66 = O=C1C=CC(=O)N1c1cccc(CCCCCCCC(=O)*)c1; X55 = O=C1C=CC(=O)N1c1ccccc1CCCCCCCCC(=O)*; X52 = O=C1C=CC(=O)N1c1ccccc1CCCCCCCC(=O)*; X71 = O=C1C=CC(=O)N1c1cccc(CCCCCC(=O)*)c1; X46 = O=C1C=CC(=O)N1c1cccc(CCCCC(=O)*)c1; X49 = O=C1C=CC(=O)N1c1ccccc1CCCCCC(=O)*; X61 = O=C1C=CC(=O)N1c1cccc(CCCC(=O)*)c1; X75 = O=C1C=CC(=O)N1c1cccc(CC(=O)*)c1

Tests used:
[1] = system: adjuvant arthritis; assay: Rat adjuvant arthritis (AA) animal model; format: in vivo, SD rats; settings: 4.0 mg/kg; for Clinical score: intravenous in the tail once every five days from day 10, four paws scored 0-4, max 16, mean±SD; for Joint swelling degree / Left and right paw swelling degree: intravenous in the tail once every five days from day 10, mean±SD
[2] = system: retinal neovascularization (OIR model); assay: Retinal vessels in OIR mice; format: in vivo, C57/B16 mice; settings: for Area of neovascular plexus (mm^2): dose 0.05 μM in the vitreous chamber on day 13, retinal vessels evaluated on day 17; for Inhibition rate (%): dose 0.05 μM in the vitreous chamber on day 13, retinal vessels evaluated on day 17, vs negative control
Excerpt: Establishment of an OIR model: Young mice and their mothers were exposed in a 75% hyperoxic environment from day 7 to day 12 after the birth of C57/B16 mice, which caused capillaries in their central retina to disappear rapidly. The mice were returned to the indoor air on day 12, retinal vessels exposed to hyperoxia quickly disappeared, causing extensive abnormal neoangiogenesis, and the central part of the retina remained largely avascular for a long time. After the blood vessels disappeared completely, the mice were injected with normal saline (a negative group), X1-X12, X13-X44, X45-X90 in the vitreous chamber on day 13 respectively, and retinal vessels were evaluated on day 17 ([…] of Texas red labeled tomato agglutinin was injected into the left ventricle to mark unclosed vessels and circulated for 5 min).

SMILES	Clinical score [1]	Joint swelling degree [1]	Left and right paw swelling degree [1]	Area of neovascular plexus (mm^2) [2]	Inhibition rate (%) [2]
C[C@H](NC(=O)CNC(=O)[C@H](CCCNC(=N)N)NC(=O)CCCCCCCCCCc1cccc(N2C(=O)C=CC2=O)c1)C(=O)N[C@@H](CC(=O)O)C(=O)N[C@@H](CCCNC(=N)N)C(=O)N[C@@H](C)C(=O)NCC(=O)NCC(=O)NCC(=O)NCC(=O)N[C@@H](CCCNC(=N)N)C(=O)NCC(=O)N[C@@H](CC(=O)O)C(=O)O [X34] (X74-RGADRAGGGGRGD-OH)	5.66 ± 1.09	0.83 ± 0.17 mm	3.84 ± 0.88 mm	0.120 ± 0.014 mm^2	43.40%*
C[C@H](NC(=O)CNC(=O)[C@H](CCCNC(=N)N)NC(=O)CCCc1cccc(N2C(=O)C=CC2=O)c1)C(=O)N[C@@H](CC(=O)O)C(=O)N[C@@H](CCCNC(=N)N)C(=O)N[C@@H](C)C(=O)NCC(=O)NCC(=O)NCC(=O)NCC(=O)N[C@@H](CCCNC(=N)N)C(=O)NCC(=O)N[C@@H](CC(=O)O)C(=O)O [X27] (X61-RGADRAGGGGRGD-OH)	5.63 ± 1.12	0.74 ± 0.17 mm	3.86 ± 0.85 mm	0.106 ± 0.002 mm^2	50.00%**
C[C@H](NC(=O)CNC(=O)[C@H](CCCNC(=N)N)NC(=O)CCCCCCCCc1cccc(N2C(=O)C=CC2=O)c1)C(=O)N[C@@H](CC(=O)O)C(=O)N[C@@H](CCCNC(=N)N)C(=O)N[C@@H](C)C(=O)NCC(=O)NCC(=O)NCC(=O)NCC(=O)N[C@@H](CCCNC(=N)N)C(=O)NCC(=O)N[C@@H](CC(=O)O)C(=O)O [X32] (X59-RGADRAGGGGRGD-OH)	5.81 ± 1.14	0.81 ± 0.18 mm	3.91 ± 0.64 mm	0.096 ± 0.001 mm^2	54.72%**
C[C@H](NC(=O)CNC(=O)[C@H](CCCNC(=N)N)NC(=O)CCCCCCCCCc1ccccc1N1C(=O)C=CC1=O)C(=O)N[C@@H](CC(=O)O)C(=O)N[C@@H](CCCNC(=N)N)C(=O)N[C@@H](C)C(=O)NCC(=O)NCC(=O)NCC(=O)NCC(=O)N[C@@H](CCCNC(=N)N)C(=O)NCC(=O)N[C@@H](CC(=O)O)C(=O)O [X21] (X60-RGADRAGGGGRGD-OH)	–	–	–	0.118 ± 0.012 mm^2	44.34%*
C[C@H](NC(=O)CNC(=O)[C@H](CCCNC(=N)N)NC(=O)CCCCCCCCc1ccccc1N1C(=O)C=CC1=O)C(=O)N[C@@H](CC(=O)O)C(=O)N[C@@H](CCCNC(=N)N)C(=O)N[C@@H](C)C(=O)NCC(=O)NCC(=O)NCC(=O)NCC(=O)N[C@@H](CCCNC(=N)N)C(=O)NCC(=O)N[C@@H](CC(=O)O)C(=O)O [X20] (X55-RGADRAGGGGRGD-OH)	5.74 ± 1.11	0.8 ± 0.17 mm	3.87 ± 0.95 mm	0.118 ± 0.014 mm^2	44.34%*
C[C@H](NC(=O)CNC(=O)[C@H](CCCNC(=N)N)NC(=O)CCCCCc1cccc(N2C(=O)C=CC2=O)c1)C(=O)N[C@@H](CC(=O)O)C(=O)N[C@@H](CCCNC(=N)N)C(=O)N[C@@H](C)C(=O)NCC(=O)NCC(=O)NCC(=O)NCC(=O)N[C@@H](CCCNC(=N)N)C(=O)NCC(=O)N[C@@H](CC(=O)O)C(=O)O [X29] (X71-RGADRAGGGGRGD-OH)	5.72 ± 1.06	0.84 ± 0.16 mm	3.72 ± 0.80 mm	0.109 ± 0.012 mm^2	48.58%*
C[C@H](NC(=O)CNC(=O)[C@H](CCCNC(=N)N)NC(=O)CCCCCc1ccccc1N1C(=O)C=CC1=O)C(=O)N[C@@H](CC(=O)O)C(=O)N[C@@H](CCCNC(=N)N)C(=O)N[C@@H](C)C(=O)NCC(=O)NCC(=O)NCC(=O)NCC(=O)N[C@@H](CCCNC(=N)N)C(=O)NCC(=O)N[C@@H](CC(=O)O)C(=O)O [X17] (X49-RGADRAGGGGRGD-OH)	5.82 ± 1.05	0.78 ± 0.15 mm	3.84 ± 0.88 mm	0.084 ± 0.009 mm^2	60.38%**
C[C@H](NC(=O)CNC(=O)[C@H](CCCNC(=N)N)NC(=O)CCCCCCCCCCc1ccccc1N1C(=O)C=CC1=O)C(=O)N[C@@H](CC(=O)O)C(=O)N[C@@H](CCCNC(=N)N)C(=O)N[C@@H](C)C(=O)NCC(=O)NCC(=O)NCC(=O)NCC(=O)N[C@@H](CCCNC(=N)N)C(=O)NCC(=O)N[C@@H](CC(=O)O)C(=O)O [X22] (X72-RGADRAGGGGRGD-OH)	5.67 ± 1.12	0.83 ± 0.14 mm	3.92 ± 0.18 mm	0.082 ± 0.005 mm^2	61.32%**
C[C@H](NC(=O)CNC(=O)[C@H](CCCNC(=N)N)NC(=O)CCCCCCCCCCCCc1ccccc1N1C(=O)C=CC1=O)C(=O)N[C@@H](CC(=O)O)C(=O)N[C@@H](CCCNC(=N)N)C(=O)N[C@@H](C)C(=O)NCC(=O)NCC(=O)NCC(=O)NCC(=O)N[C@@H](CCCNC(=N)N)C(=O)NCC(=O)N[C@@H](CC(=O)O)C(=O)O [X24] (X84-RGADRAGGGGRGD-OH)	5.73 ± 1.15	0.76 ± 0.15 mm	3.94 ± 0.70 mm	0.107 ± 0.012 mm^2	49.53%*
C[C@H](NC(=O)CNC(=O)[C@H](CCCNC(=N)N)NC(=O)CCCCCCCc1cccc(N2C(=O)C=CC2=O)c1)C(=O)N[C@@H](CC(=O)O)C(=O)N[C@@H](CCCNC(=N)N)C(=O)N[C@@H](C)C(=O)NCC(=O)NCC(=O)NCC(=O)NCC(=O)N[C@@H](CCCNC(=N)N)C(=O)NCC(=O)N[C@@H](CC(=O)O)C(=O)O [X31] (X66-RGADRAGGGGRGD-OH)	5.74 ± 1.12	0.84 ± 0.12 mm	3.72 ± 0.98 mm	0.101 ± 0.013 mm^2	52.83%**
C[C@H](NC(=O)CNC(=O)[C@H](CCCNC(=N)N)NC(=O)Cc1cccc(N2C(=O)C=CC2=O)c1)C(=O)N[C@@H](CC(=O)O)C(=O)N[C@@H](CCCNC(=N)N)C(=O)N[C@@H](C)C(=O)NCC(=O)NCC(=O)NCC(=O)NCC(=O)N[C@@H](CCCNC(=N)N)C(=O)NCC(=O)N[C@@H](CC(=O)O)C(=O)O [X25] (X75-RGADRAGGGGRGD-OH)	5.72 ± 1.11	0.71 ± 0.16 mm	3.76 ± 0.09 mm	0.096 ± 0.012 mm^2	54.72%**
C[C@H](NC(=O)CNC(=O)[C@H](CCCNC(=N)N)NC(=O)CCCCCCCCCCCc1cccc(N2C(=O)C=CC2=O)c1)C(=O)N[C@@H](CC(=O)O)C(=O)N[C@@H](CCCNC(=N)N)C(=O)N[C@@H](C)C(=O)NCC(=O)NCC(=O)NCC(=O)NCC(=O)N[C@@H](CCCNC(=N)N)C(=O)NCC(=O)N[C@@H](CC(=O)O)C(=O)O [X35] (X58-RGADRAGGGGRGD-OH)	5.83 ± 1.07	0.85 ± 0.13 mm	3.78 ± 0.56 mm	0.101 ± 0.005 mm^2	52.36%**
C[C@H](NC(=O)CNC(=O)[C@H](CCCNC(=N)N)NC(=O)CCCCCCCCCCCCc1cccc(N2C(=O)C=CC2=O)c1)C(=O)N[C@@H](CC(=O)O)C(=O)N[C@@H](CCCNC(=N)N)C(=O)N[C@@H](C)C(=O)NCC(=O)NCC(=O)NCC(=O)NCC(=O)N[C@@H](CCCNC(=N)N)C(=O)NCC(=O)N[C@@H](CC(=O)O)C(=O)O [X36] (X65-RGADRAGGGGRGD-OH)	5.71 ± 1.09	0.81 ± 0.12 mm	4.00 ± 0.44 mm	0.084 ± 0.009 mm^2	60.38%**
C[C@H](NC(=O)CNC(=O)[C@H](CCCNC(=N)N)NC(=O)CCCCCCCc1ccccc1N1C(=O)C=CC1=O)C(=O)N[C@@H](CC(=O)O)C(=O)N[C@@H](CCCNC(=N)N)C(=O)N[C@@H](C)C(=O)NCC(=O)NCC(=O)NCC(=O)NCC(=O)N[C@@H](CCCNC(=N)N)C(=O)NCC(=O)N[C@@H](CC(=O)O)C(=O)O [X19] (X52-RGADRAGGGGRGD-OH)	–	–	–	0.083 ± 0.019 mm^2	60.85%**
C[C@H](NC(=O)CNC(=O)[C@H](CCCNC(=N)N)NC(=O)CCCCCCCCCCCc1ccccc1N1C(=O)C=CC1=O)C(=O)N[C@@H](CC(=O)O)C(=O)N[C@@H](CCCNC(=N)N)C(=O)N[C@@H](C)C(=O)NCC(=O)NCC(=O)NCC(=O)NCC(=O)N[C@@H](CCCNC(=N)N)C(=O)NCC(=O)N[C@@H](CC(=O)O)C(=O)O [X23] (X68-RGADRAGGGGRGD-OH)	–	–	–	0.101 ± 0.002 mm^2	52.36%**
C[C@H](NC(=O)CNC(=O)[C@H](CCCNC(=N)N)NC(=O)CCCCc1cccc(N2C(=O)C=CC2=O)c1)C(=O)N[C@@H](CC(=O)O)C(=O)N[C@@H](CCCNC(=N)N)C(=O)N[C@@H](C)C(=O)NCC(=O)NCC(=O)NCC(=O)NCC(=O)N[C@@H](CCCNC(=N)N)C(=O)NCC(=O)N[C@@H](CC(=O)O)C(=O)O [X28] (X46-RGADRAGGGGRGD-OH)	–	–	–	0.088 ± 0.004 mm^2	58.49%**
C[C@H](NC(=O)CNC(=O)[C@H](CCCNC(=N)N)NC(=O)CCCCCCCCCc1cccc(N2C(=O)C=CC2=O)c1)C(=O)N[C@@H](CC(=O)O)C(=O)N[C@@H](CCCNC(=N)N)C(=O)N[C@@H](C)C(=O)NCC(=O)NCC(=O)NCC(=O)NCC(=O)N[C@@H](CCCNC(=N)N)C(=O)NCC(=O)N[C@@H](CC(=O)O)C(=O)O [X33] (X64-RGADRAGGGGRGD-OH)	–	–	–	0.089 ± 0.029 mm^2	58.02%**
